Tested on: MV-4-11 cells
Experiment: Gene expression microarray analysis (Affymetrix PrimeView) and GSEA
Type: cell-based, human
Set-up: RFU PODN (11730768_x_at) / Fold change /veh PODN (11730768_x_at) / RFU LINC00158 (11744669_a_at) / Fold change /veh LINC00158 (11744669_a_at) / RFU DUSP10 (11751237_a_at) / Fold change /veh DUSP10 (11751237_a_at) / RFU ID3 (11757404_x_at) / Fold change /veh ID3 (11757404_x_at) / RFU PLEKHG5 (11737974_s_at) / Fold change /veh PLEKHG5 (11737974_s_at) / RFU LRRC4B (11730491_at) / Fold change /veh LRRC4B (11730491_at) / RFU GIMAP4 (11747438_a_at) / Fold change /veh GIMAP4 (11747438_a_at) / RFU KRT8 (11758183_x_at) / Fold change /veh KRT8 (11758183_x_at) / RFU CNN1 (11734310_a_at) / Fold change /veh CNN1 (11734310_a_at) / RFU VPS37D (11726825_at) / Fold change /veh VPS37D (11726825_at) / RFU C10orf10 (11716522_x_at) / Fold change /veh C10orf10 (11716522_x_at) / RFU KIR2DL2 /// KIR2DL4 /// KIR2DL5A /// KIR2DL5B /// KIR2DS1 /// KIR2DS2 /// KIR2DS3 /// KIR2DS4 /// KIR3DL3 /// KIR3DL3 /// KIR3DS1 (11738374_at) / Fold change /veh KIR2DL2 /// KIR2DL4 /// KIR2DL5A /// KIR2DL5B /// KIR2DS1 /// KIR2DS2 /// KIR2DS3 /// KIR2DS4 /// KIR3DL3 /// KIR3DL3 /// KIR3DS1 (11738374_at) / RFU C1QL1 (11718748_at) / Fold change /veh C1QL1 (11718748_at) / RFU TMPRSS4 (11747572_a_at) / Fold change /veh TMPRSS4 (11747572_a_at) / RFU HAMP (11756126_x_at) / Fold change /veh HAMP (11756126_x_at) / RFU RNFT2 (11725882_a_at) / Fold change /veh RNFT2 (11725882_a_at) / RFU NR4A2 (11747474_a_at) / Fold change /veh NR4A2 (11747474_a_at) / RFU ABCC12 (11746883_a_at) / Fold change /veh ABCC12 (11746883_a_at) / RFU TMEM136 (11760407_x_at) / Fold change /veh TMEM136 (11760407_x_at) / RFU CLDN22 /// WWC2 (11732394_at) / Fold change /veh CLDN22 /// WWC2 (11732394_at) / RFU HLA-DPB1 (11760878_x_at) / Fold change /veh HLA-DPB1 (11760878_x_at) / RFU SPINT1 (11716480_a_at) / Fold change /veh SPINT1 (11716480_a_at) / RFU GAP43 (11754022_s_at) / Fold change /veh GAP43 (11754022_s_at) / RFU A4GNT (11735810_at) / Fold change /veh A4GNT (11735810_at) / RFU PRB3 (11715151_x_at) / Fold change /veh PRB3 (11715151_x_at) / RFU TUBB4B (11761932_at) / Fold change /veh TUBB4B (11761932_at) / RFU CAPN14 (11732068_a_at) / Fold change /veh CAPN14 (11732068_a_at) / RFU TMCC2 (11721928_a_at) / Fold change /veh TMCC2 (11721928_a_at) / RFU IRGQ (11745062_a_at) / Fold change /veh IRGQ (11745062_a_at) / RFU FAM174B (11720279_a_at) / Fold change /veh FAM174B (11720279_a_at) / RFU TMPRSS4 (11748680_a_at) / Fold change /veh TMPRSS4 (11748680_a_at) / RFU FAM212B (11763350_a_at) / Fold change /veh FAM212B (11763350_a_at) / RFU PLEKHG5 (11743358_a_at) / Fold change /veh PLEKHG5 (11743358_a_at) / RFU ZSCAN30 (11745921_a_at) / Fold change /veh ZSCAN30 (11745921_a_at) / RFU CMKLR1 (11741424_a_at) / Fold change /veh CMKLR1 (11741424_a_at) / RFU LOC101060620 /// MAPK8IP1 (11723275_at) / Fold change /veh LOC101060620 /// MAPK8IP1 (11723275_at) / RFU SPTSSB (11747773_x_at) / Fold change /veh SPTSSB (11747773_x_at) / RFU PRSS12 (11739890_at) / Fold change /veh PRSS12 (11739890_at) / RFU BIN1 (11741810_x_at) / Fold change /veh BIN1 (11741810_x_at) / RFU WNT11 (11732464_a_at) / Fold change /veh WNT11 (11732464_a_at) / RFU C10orf10 (11716521_a_at) / Fold change /veh C10orf10 (11716521_a_at) / RFU C5orf56 (11738089_at) / Fold change /veh C5orf56 (11738089_at) / RFU CYB561 (11721691_x_at) / Fold change /veh CYB561 (11721691_x_at) / RFU ANKRD19P (11752326_a_at) / Fold change /veh ANKRD19P (11752326_a_at) / RFU OR2T12 /// OR2T33 /// OR2T8 (11738714_s_at) / Fold change /veh OR2T12 /// OR2T33 /// OR2T8 (11738714_s_at) / RFU VCAN (11748164_a_at) / Fold change /veh VCAN (11748164_a_at) / RFU JSRP1 (11732532_at) / Fold change /veh JSRP1 (11732532_at) / RFU KRTAP10-11 (11738290_x_at) / Fold change /veh KRTAP10-11 (11738290_x_at) / RFU MYO3A (11730013_a_at) / Fold change /veh MYO3A (11730013_a_at) / RFU EBF3 (11725865_a_at) / Fold change /veh EBF3 (11725865_a_at) / RFU CAMK2N1 (11719241_x_at) / Fold change /veh CAMK2N1 (11719241_x_at) / RFU C5orf56 (11738088_a_at) / Fold change /veh C5orf56 (11738088_a_at) / RFU OLFML3 (11715873_a_at) / Fold change /veh OLFML3 (11715873_a_at) / RFU LOC100653217 /// NTM (11731650_a_at) / Fold change /veh LOC100653217 /// NTM (11731650_a_at) / RFU MAPK11 (11762145_a_at) / Fold change /veh MAPK11 (11762145_a_at) / RFU FIZ1 (11724087_x_at) / Fold change /veh FIZ1 (11724087_x_at) / RFU OASL (11726364_x_at) / Fold change /veh OASL (11726364_x_at) / RFU SOX15 (11748057_x_at) / Fold change /veh SOX15 (11748057_x_at) / RFU CD79A (11719716_a_at) / Fold change /veh CD79A (11719716_a_at) / RFU HIST1H1D (11736915_at) / Fold change /veh HIST1H1D (11736915_at) / RFU CASKIN2 (11723855_a_at) / Fold change /veh CASKIN2 (11723855_a_at) / RFU LOC730098 (11760151_x_at) / Fold change /veh LOC730098 (11760151_x_at) / RFU OR4N2 (11742367_at) / Fold change /veh OR4N2 (11742367_at) / RFU PRRT2 (11749266_a_at) / Fold change /veh PRRT2 (11749266_a_at) / RFU SNX32 (11753110_a_at) / Fold change /veh SNX32 (11753110_a_at) / RFU CDHR5 (11726645_a_at) / Fold change /veh CDHR5 (11726645_a_at) / RFU RCAN1 (11760418_a_at) / Fold change /veh RCAN1 (11760418_a_at) / RFU FAM167A (11723789_a_at) / Fold change /veh FAM167A (11723789_a_at) / RFU FAM26E (11764081_at) / Fold change /veh FAM26E (11764081_at) / RFU ISYNA1 (11749810_s_at) / Fold change /veh ISYNA1 (11749810_s_at) / RFU ACY1 (11761880_at) / Fold change /veh ACY1 (11761880_at) / RFU 11764098_at / Fold change /veh 11764098_at / RFU SAMD14 (11745864_x_at) / Fold change /veh SAMD14 (11745864_x_at) / RFU NPB (11741838_a_at) / Fold change /veh NPB (11741838_a_at) / RFU TMPRSS6 (11731388_a_at) / Fold change /veh TMPRSS6 (11731388_a_at) / RFU KRTAP10-2 (11738614_at) / Fold change /veh KRTAP10-2 (11738614_at) / RFU ARHGAP8 /// PRR5-ARHGAP8 (11727945_x_at) / Fold change /veh ARHGAP8 /// PRR5-ARHGAP8 (11727945_x_at) / RFU KRTAP5-7 /// NADSYN1 (11734609_at) / Fold change /veh KRTAP5-7 /// NADSYN1 (11734609_at) / RFU RASL12 (11751679_a_at) / Fold change /veh RASL12 (11751679_a_at) / RFU CDKN2B (11736163_a_at) / Fold change /veh CDKN2B (11736163_a_at) / RFU PRF1 (11729649_at) / Fold change /veh PRF1 (11729649_at) / RFU, ZNF638 /// ZNF638-IT1 / Fold change vs veh, ZNF638 /// ZNF638-IT1 / RFU, PANK3 / Fold change vs veh, PANK3 / RFU, SH3YL1 / Fold change vs veh, SH3YL1 / RFU, ZEB2 / Fold change vs veh, ZEB2 / RFU, NRIP1 / Fold change vs veh, NRIP1 / RFU, PTTG1IP / Fold change vs veh, PTTG1IP / RFU, CAPN2 / Fold change vs veh, CAPN2 / RFU, MED14 / Fold change vs veh, MED14 / RFU, SNORA58 / Fold change vs veh, SNORA58 / RFU, C1orf63 / Fold change vs veh, C1orf63 / RFU, LRRFIP1 / Fold change vs veh, LRRFIP1 / RFU, NDUFAF7 / Fold change vs veh, NDUFAF7 / RFU, SLC12A2 / Fold change vs veh, SLC12A2 / RFU, IBTK / Fold change vs veh, IBTK / RFU, ESF1 / Fold change vs veh, ESF1 / Fold change vs veh, TMEM50B / RFU, TAOK1 / Fold change vs veh, TAOK1 / RFU, ACBD3 / Fold change vs veh, ACBD3 / RFU, TMA16 / Fold change vs veh, TMA16 / RFU, RWDD3 / Fold change vs veh, RWDD3 / RFU, BCAT1 / Fold change vs veh, BCAT1 / RFU, EDEM3 / Fold change vs veh, EDEM3 / RFU, TMEM33 / Fold change vs veh, TMEM33 / RFU, WDR75 / Fold change vs veh, WDR75 / RFU, AHCTF1 / Fold change vs veh, AHCTF1 / RFU, TFRC / Fold change vs veh, TFRC / RFU, ZDHHC17 / Fold change vs veh, ZDHHC17 / RFU, NOM1 / Fold change vs veh, NOM1 / RFU, ARL8B / Fold change vs veh, ARL8B / RFU, ZBTB11 / Fold change vs veh, ZBTB11 / RFU, TAMM41 / Fold change vs veh, TAMM41 / RFU, KIAA1704 /// LOC100996395 / Fold change vs veh, KIAA1704 /// LOC100996395 / RFU, ING1 / Fold change vs veh, ING1 / RFU, TRMT61B / Fold change vs veh, TRMT61B / RFU, FUBP3 / Fold change vs veh, FUBP3 / RFU, TP53 / Fold change vs veh, TP53 / RFU, TNKS2 / Fold change vs veh, TNKS2 / RFU, ZFP14 / Fold change vs veh, ZFP14 / RFU, ACTR2 / Fold change vs veh, ACTR2 / RFU, PPP3R1 / Fold change vs veh, PPP3R1 / RFU, PIK3R1 / Fold change vs veh, PIK3R1 / RFU, HNRNPA1 / Fold change vs veh, HNRNPA1 / RFU, RNF170 / Fold change vs veh, RNF170 / RFU, ZNF28 / Fold change vs veh, ZNF28 / RFU, RNGTT / Fold change vs veh, RNGTT / RFU, OGT / Fold change vs veh, OGT / RFU, BRD1 / Fold change vs veh, BRD1 / RFU, MARS / Fold change vs veh, MARS / RFU, ZNF655 / Fold change vs veh, ZNF655 / RFU, FAHD1 / Fold change vs veh, FAHD1 / RFU, BDP1 / Fold change vs veh, BDP1 / RFU, LRRCC1 / Fold change vs veh, LRRCC1 / RFU, ARID1A / Fold change vs veh, ARID1A / RFU, ZNF146 / Fold change vs veh, ZNF146 / RFU, ZNF330 / Fold change vs veh, ZNF330 / RFU, GPN3 / Fold change vs veh, GPN3 / RFU, C9orf123 / Fold change vs veh, C9orf123 / RFU, N4BP2L2 / Fold change vs veh, N4BP2L2 / RFU, ARFIP1 / Fold change vs veh, ARFIP1 / RFU, FAM179B / Fold change vs veh, FAM179B / RFU, BCL10 / Fold change vs veh, BCL10 / RFU, UHRF1BP1L / Fold change vs veh, UHRF1BP1L / RFU, BET1 / Fold change vs veh, BET1 / RFU, CNOT2 / Fold change vs veh, CNOT2 / RFU, ZNF268 / Fold change vs veh, ZNF268 / Fold change vs veh, ZNF507 / RFU, DGCR2 / Fold change vs veh, DGCR2 / RFU, WDSUB1 / Fold change vs veh, WDSUB1 / Fold change vs veh, HSP90B1 /// MIR3652 / RFU, ADSS / Fold change vs veh, ADSS / RFU, GK / Fold change vs veh, GK / RFU, ZNF148 / Fold change vs veh, ZNF148 / RFU, TAF9 / Fold change vs veh, TAF9 / RFU, SLC1A5 / Fold change vs veh, SLC1A5 / RFU, SLMO2 / Fold change vs veh, SLMO2 / RFU, ABCC4 / Fold change vs veh, ABCC4 / RFU, LOC101060439 /// RAP1B / Fold change vs veh, LOC101060439 /// RAP1B / RFU, RFX7 / Fold change vs veh, RFX7 / RFU, GTPBP10 / Fold change vs veh, GTPBP10 / RFU, CNEP1R1 / Fold change vs veh, CNEP1R1 / RFU, BIVM-ERCC5 /// ERCC5 / Fold change vs veh, BIVM-ERCC5 /// ERCC5 / RFU, ILF3 / Fold change vs veh, ILF3 / RFU 11762660_at / Fold change /veh 11762660_at / RFU VCAN (11757783_s_at) / Fold change /veh VCAN (11757783_s_at) / RFU DDX43 (11728927_at) / Fold change /veh DDX43 (11728927_at) / RFU KRT8 (11758188_x_at) / Fold change /veh KRT8 (11758188_x_at) / RFU NKD1 (11759106_at) / Fold change /veh NKD1 (11759106_at) / RFU SRD5A1 (11742802_a_at) / Fold change /veh SRD5A1 (11742802_a_at) / RFU TPSAB1 /// TPSB2 (11721975_s_at) / Fold change /veh TPSAB1 /// TPSB2 (11721975_s_at) / RFU GSTM3 (11746129_a_at) / Fold change /veh GSTM3 (11746129_a_at) / RFU IL23R (11737362_x_at) / Fold change /veh IL23R (11737362_x_at) / RFU TMEM51 (11727254_a_at) / Fold change /veh TMEM51 (11727254_a_at) / RFU PIWIL2 (11732686_x_at) / Fold change /veh PIWIL2 (11732686_x_at) / RFU ORM1 (11744905_x_at) / Fold change /veh ORM1 (11744905_x_at) / RFU CCDC152 (11743942_at) / Fold change /veh CCDC152 (11743942_at) / RFU ECM1 (11717891_a_at) / Fold change /veh ECM1 (11717891_a_at) / RFU IL23R (11748794_a_at) / Fold change /veh IL23R (11748794_a_at) / RFU TNFAIP8L3 (11732012_x_at) / Fold change /veh TNFAIP8L3 (11732012_x_at) / RFU MBOAT4 (11741988_at) / Fold change /veh MBOAT4 (11741988_at) / RFU 11764193_at / Fold change /veh 11764193_at / RFU TMEM53 (11763286_at) / Fold change /veh TMEM53 (11763286_at) / RFU MAGEB2 (11727129_at) / Fold change /veh MAGEB2 (11727129_at) / RFU TMEM200A (11744735_a_at) / Fold change /veh TMEM200A (11744735_a_at) / RFU CCDC152 (11751479_a_at) / Fold change /veh CCDC152 (11751479_a_at) / RFU FAM211A (11726209_a_at) / Fold change /veh FAM211A (11726209_a_at) / RFU RGS16 (11746705_a_at) / Fold change /veh RGS16 (11746705_a_at) / RFU VCAN (11755009_s_at) / Fold change /veh VCAN (11755009_s_at) / RFU RHOB (11743442_s_at) / Fold change /veh RHOB (11743442_s_at) / RFU RGS16 (11720943_a_at) / Fold change /veh RGS16 (11720943_a_at) / RFU RGS16 (11720944_at) / Fold change /veh RGS16 (11720944_at) / RFU, VPS4B / Fold change vs veh, VPS4B / RFU, CREB1 / Fold change vs veh, CREB1 / RFU, DNAJC13 / Fold change vs veh, DNAJC13 / RFU, GNAQ / Fold change vs veh, GNAQ / RFU, CDK5R1 / Fold change vs veh, CDK5R1 / RFU, ZRANB3 / Fold change vs veh, ZRANB3 / RFU, CUL4A / Fold change vs veh, CUL4A / RFU, CCNY / Fold change vs veh, CCNY / RFU, UFL1 / Fold change vs veh, UFL1 / RFU, COG3 / Fold change vs veh, COG3 / RFU, DIAPH2 / Fold change vs veh, DIAPH2 / RFU, SKA2 / Fold change vs veh, SKA2 / RFU, AFF3 / Fold change vs veh, AFF3 / RFU, LMF1 / Fold change vs veh, LMF1 / RFU, IPO11 / Fold change vs veh, IPO11 / RFU, DFFB / Fold change vs veh, DFFB / RFU, FOXP1 / Fold change vs veh, FOXP1 / RFU, CARD8 / Fold change vs veh, CARD8 / RFU, STRN3 / Fold change vs veh, STRN3 / RFU, ADK / Fold change vs veh, ADK / RFU, RASSF2 / Fold change vs veh, RASSF2 / RFU, WIPF1 / Fold change vs veh, WIPF1 / RFU, LARP1B / Fold change vs veh, LARP1B / RFU, RASA1 / Fold change vs veh, RASA1 / RFU, RB1 / Fold change vs veh, RB1 / RFU, PPFIA1 / Fold change vs veh, PPFIA1 / RFU, MAT2A / Fold change vs veh, MAT2A / RFU, CCT5 / Fold change vs veh, CCT5 / RFU, WDR92 / Fold change vs veh, WDR92 / RFU, CUX1 / Fold change vs veh, CUX1 / RFU, TTC7A / Fold change vs veh, TTC7A / RFU, TMEM135 / Fold change vs veh, TMEM135 / RFU, DEPTOR / Fold change vs veh, DEPTOR / RFU, CPM / Fold change vs veh, CPM / RFU, DNAJB6 / Fold change vs veh, DNAJB6 / RFU, CACNA2D3 / Fold change vs veh, CACNA2D3 / RFU, DTX4 / Fold change vs veh, DTX4 / RFU, TFCP2 / Fold change vs veh, TFCP2 / RFU, GMCL1 /// GMCL1P1 / Fold change vs veh, GMCL1 /// GMCL1P1 / RFU, AEBP2 / Fold change vs veh, AEBP2 / RFU, SNHG1 /// SNORD22 /// SNORD25 /// SNORD26 /// SNORD27 /// SNORD28 /// SNORD29 /// SNORD31 / Fold change vs veh, SNHG1 /// SNORD22 /// SNORD25 /// SNORD26 /// SNORD27 /// SNORD28 /// SNORD29 /// SNORD31 / Fold change (Aza/veh), C12orf56 (ProbeSet 11735607_a_at) / Fold change (ACY-1035/veh), C12orf56 (ProbeSet 11735607_a_at) / Fold change (Aza/veh), FGFR1OP (ProbeSet 11751329_s_at) / Fold change (ACY-1035/veh), FGFR1OP (ProbeSet 11751329_s_at) / Fold change (Aza/veh), VPS36 (ProbeSet 11739960_a_at) / Fold change (ACY-1035/veh), VPS36 (ProbeSet 11739960_a_at) / RFU SYPL1 (11715823_x_at) / Fold change /veh SYPL1 (11715823_x_at) / RFU IGFBP7 (11715501_s_at) / Fold change /veh IGFBP7 (11715501_s_at) / RFU REEP3 (11722064_at) / Fold change /veh REEP3 (11722064_at) / RFU IGLL1 (11728026_x_at) / Fold change /veh IGLL1 (11728026_x_at): dose or concentration left out as unconfirmed
Conditions: MV-4-11 cells, 48 hours

Nc1ccc(-c2cccs2)cc1NC(=O)c1ccc2c(c1)cc(C1CC1)n2CCN1CCOCC1 [ACY-1035]
Fold change /veh 11762660_at: 0.98
